For data set [1] the following is noted: in vivo; cited from earlier work.
For data set [2] the following is noted: in vitro; cited from earlier work.
Data set [3] in a line: In vivo joint clearance pharmacokinetics after intraarticular injection, longitudinal IVIS fluorescence imaging. Also noted: species or system rat. How it is done: Animals. All procedures were performed according to protocols approved by the Institutional Animal Care and Use Committee (IACUC) or Cornell University. Sprague Dawley male rats ([…], 300-325 g; Charles River Laboratories, Wilmington, MA) were housed in pairs under a standard 12 h light/dark cycle starting at 6:00 a.m. The animals were allowed to move freely in their cages, fed a low-fluorescence commercial diet (Teklad 2914) and were allowed access to tap water.
Animal Study Design. Rats were randomly assigned to (1) unoperated controls (naïve) and (2) those receiving ipsilateral anterior cruciate ligament transection (ACLT) and contralateral sham to model arthritic pathological joint changes (FIGS. 9A and B). Naïve rats were further split into pilot studies for intraarticular bilateral injection of Cy5 free fluorophore (n=2), unilateral C′ Dot injection with contralateral saline (n=4), and bilateral C′ Dot injection (n=4). Animals that received bilateral surgery were further split into groups where one group received no intraarticular injections (n=4) and one group received bilateral intraarticular injection of C′ Dots one week post-operatively (n=6). Selected animals underwent ACLT surgery on a randomly assigned knee via an open surgical approach under 2.5% isoflurane anesthesia at 1 L/min O2, as previously described. Complete transection of the ACL was confirmed by a cranial drawer test. A single dose of Ethiqa XR (slow release buprenorphine) was administered subcutaneously at 0.65 mg/kg just prior to ACLT surgery. The animals could ambulate, eat, and drink ad libitum after surgery.
Intraarticular injection. Under 3% isoflurane anesthesia, the lower abdominal region (distal to sternum) including the front and back of both stifles was clipped to remove fur and sterilized with three alternating wipes of iodine and ethanol. […]
In vivo longitudinal fluorescence imaging. Longitudinal fluorescence images of rats receiving Cy5 or C′ Dot intraarticular injections were recorded using the In Vivo Imaging System (IVIS) Kinetic (Perkin Elmer; Waltham, MA) over one week for Cy5 injection at the following timepoints: 0, 1, 2, 4, 8, 12, 24, 48, and 72 h, and at 7 d (FIG. 9S3). […] Each week, rat fur was clipped as described above and animal weights were recorded. […] Fluorescence was set at 640 nm/680 nm excitation/emission optimized for Cyanine-5 and C′ Dots.
IVIS image analysis. […] Total Radiant Efficiency (TRE) (area sum of ((p/sec/cm^2/sr)/(ρW/cm^2))) was recorded for each stifle at each time point for the duration of imaging. Average TRE from saline-injected stifles (n=4) was subtracted from all stifle TRE measurements as tissue fluorescence background. […]

On to “anakinra: established DMARD, anakinra (Kineret)”, for which, in data set [1], the “half-life in the knee / joint half-life” value is 24 h. Besides, the “duration of anti-inflammatory effects” value in data set [2] is given as 2 days.

Regarding `CN1C(=CC=CC=CC2=[N+](CCCCCC(=O)O)c3ccc(S(=O)(=O)O)cc3C2(C)C)C(C)(C)c2cc(S(=O)(=O)[O-])ccc21` [Cy5, Sulfo-Cyanine-5-carboxylic acid], the “time constant τ, single exponential decay” value in data set [3] (naïve knees, Eq 2) was 0.6 h. Besides, in data set [3] (naïve rat knees), the “time after which fluorescence was undetectable” value came to 3 days. Besides, in data set [3] (naïve rat knees, Cy5 dye injection), the “time of signal peak” value was determined as 0 h. In data set [3] (t1/2=ln(2)*τ), the “half-life t1/2,1” value amounted to 0.4 h.

These data come from patent US20260232847A1, “Nanoparticles For Imaging And Treatment Of Arthritis And Inflammatory Joint Diseases” (Cornell University, priority 2023, published 2026).
